Assay results reported in patent US20260151372A1, “AZOTOMYCIN PRODRUGS WITH PREFERENTIAL TUMOR DELIVERY” (The Johns Hopkins University, priority 2022, published 2026).
Entries after “also recorded” stand apart in the source; their conditions may differ.

Legend:
[1] = Metabolic stability in CES1-KO mouse liver homogenate; format: in vitro ADME; conditions: tissue homogenate, 10 μM, 37° C.
Description: (§1) In vitro stability studies were done using CES1KO mouse plasma, human plasma, CES1-KO mouse liver, and human liver microsomes as previously described. For tissue homogenate stability studies, washed tissue was diluted 10-fold in 0.1 M potassium phosphate buffer and homogenized using probe sonication. Crude homogenate was then aliquoted to 1 mL, and spiked with 10 mM stock of the analyte in DMSO to achieve a 10 μM final concentration. The plasma stability of the prodrugs was determined by spiking the analyte in 1 mL of plasma. The plasma and tissues were incubated in an orbital shaker at 37° C. Stability in human liver microsomes was assessed at a final prodrug concentration of 1 μM with 0.2 mg/mL protein for microsomes. All the stability studies were conducted at predetermined times (0 and 60 min), where 50 μL aliquots of the mixture in triplicate were removed and the reaction was quenched by addition of 5 times the volume of ice-cold methanol spiked with the internal standard (losartan: 0.5 μM). The samples were vortex-mixed for 30 s and centrifuged at 10,000 g for 10 min at 4° C. An amount of 50 μL of the supernatant was diluted with 50 μL of water and transferred to a 250 μL polypropylene vial sealed with a Teflon cap. Prodrug disappearance was monitored over time using liquid chromatography and mass spectrometry (LC-MS).
(§2) Analyses were performed on a Dionex ultra high-performance LC system coupled with Q Exactive Focus orbitrap mass spectrometer (Thermo Fisher Scientific Inc., Waltham MA). Separation was achieved using Agilent Eclipse Plus column (100×2.1 mm i.d., maintained at 35° C.) packed with a 1.8 μm C18 stationary phase. The mobile phase consisted of 0.1% formic acid in water and 0.1% formic acid in acetonitrile, […] were operated at a flow rate of 0.3 mL/min for 7 min using gradient elution. The mass spectrometer controlled by Xcalibur software 4.0.27.13 (Thermo Scientific) was operated with a HESI ion source in positive ionization mode. Metabolites were identified in the full-scan mode (from m/z 50 to 1600) by comparing […] samples

[2] = Plasma stability in CES1KO mouse plasma; format: in vitro ADME; conditions: for Plasma Stability (% Remaining at 60 min) CES1^−/− Mouse Plasma: 37° C.; for stability in vitro (in words): mouse and human plasma and liver microsomes in vitro
Description: as §1, §2

[3] = Pharmacokinetics in C57BL/6 CES1^−/− mice bearing flank EL4 tumors; format: in vivo
Description: The pharmacokinetic study in C57BL/6 CES1 mice was conducted according to protocols reviewed and approved by the Johns Hopkins Institutional Animal Care and Use Committee in compliance with the Association for Assessment and Accreditation of Laboratory Animal Care International and the Public Health Service Policy on the Humane Care and Use of Laboratory Animals (PHS Policy). Briefly, naïve male and female C57BL/6 CES1^−/− mice (weighing between 25 and 30 g) 6-8 weeks of age were used. The animals were maintained on a 12 h light-dark cycle with ad libitum access to food and water. Tumors were grown via subcutaneous (SC) injection of EL4 cells (1×10^6 cells in 0.2 mL of phosphate-buffered saline) in one location on the flank of each mouse. […]
For quantifying intact analytes in the pharmacokinetic samples, plasma samples (25 μL) were processed using a single step protein precipitation method by addition of 125 μL of methanol containing internal standard (losartan: 0.5 μM), followed by vortex-mixing for 30 s and then centrifugation at 16,000 g for 5 min at 4° C. […]
The samples were subjected to dabsyl chloride derivatization and analyzed by LC-MS/MS, as described in Tenora et al., 2019. […]

[4] = Metabolic stability in human liver microsomes; format: in vitro ADME; conditions: 1 μM prodrug, 0.2 mg/mL protein
Description: as §1, §2

[5] = Plasma stability in human plasma; format: in vitro ADME; conditions: 37° C.
Description: as §1, §2

SMILES | Liver Stability (% Remaining at 60 min) CES1^−/− Mouse Liver [1] [%] | Plasma Stability (% Remaining at 60 min) CES1^−/− Mouse Plasma [2] [%] | stability in vitro (in words) [2] | preferential tumor delivery / tumor targeting (in words) [3] | Liver Stability (% Remaining at 60 min) Human Liver Microsomes [4] [%] | Plasma Stability (% Remaining at 60 min) Human Plasma [5] [%]
CN(C)CC(=O)N[C@@H](CCC(=O)N[C@@H](CCC(=O)C=[N+]=[N-])C(=O)N[C@@H](CCC(=O)C=[N+]=[N-])C(=O)OC(C)(C)C)C(=O)OC(C)(C)C [Prodrug P3, tert-Butyl (6S,11S,14S)-6-(tert-butoxycarbonyl)-11,14-bis(4-diazo-3-oxobutyl)-2-methyl-4,9,12-trioxo-2,5,10,13-tetraazapentadecan-15-oate] | 96.0 ± 4.36 | 92.3 ± 0.882 | stable | exhibited preferential tumor delivery | 105 ± 2.53 | 106 ± 2.40
CN(C)CC(=O)N[C@@H](Cc1c[nH]c2ccccc12)C(=O)N[C@@H](CCC(=O)N[C@@H](CCC(=O)C=[N+]=[N-])C(=O)N[C@@H](CCC(=O)C=[N+]=[N-])C(=O)OC(C)(C)C)C(=O)OC(C)(C)C [Prodrug P4, tert-Butyl (6S,9S,14S,17S)-6-((1H-indol-3-yl)methyl)-9-(tert-butoxycarbonyl)-14,17-bis(4-diazo-3-oxobutyl)-2-methyl-4,7,12,15-tetraoxo-2,5,8,13,16-pentaazaoctadecan-18-oate] | 54.3 ± 1.45 | 101 ± 4.67 | stable | exhibited preferential tumor delivery; also recorded: showed tumor targeting | 107 ± 1.63 | 100 ± 0.00
CC(C)OC(=O)[C@H](CCC(=O)N[C@@H](CCC(=O)C=[N+]=[N-])C(=O)N[C@@H](CCC(=O)C=[N+]=[N-])C(=O)OC(C)C)NC(=O)CNC(=O)CN(C)C [Prodrug P17, Isopropyl (9S,14S,17S)-14,17-bis(4-diazo-3-oxobutyl)-9-(isopropoxycarbonyl)-2-methyl-4,7,12,15-tetraoxo-2,5,8,13,16-pentaazaoctadecan-18-oate] | 0.964 ± 0.031 | 94.0 ± 2.47 | – | – | 98.0 ± 5.36 | 93.7 ± 4.92
CC(C)OC(=O)[C@H](CCC(=O)C=[N+]=[N-])NC(=O)[C@H](CCC(=O)C=[N+]=[N-])NC(=O)CC[C@H](NC(=O)[C@H](CCCNC(N)=O)NC(=O)[C@@H](N)C(C)C)C(=O)OC(C)C [Prodrug P18, Isopropyl (6S,9S,14S,17S)-1-amino-6-((S)-2-amino-3-methylbutanamido)-14,17-bis(4-diazo-3-oxobutyl)-9-(isopropoxycarbonyl)-1,7,12,15-tetraoxo-2,8,13,16-tetraazaoctadecan-18-oate] | 0.11 ± 0.03 | 105 ± 5 | – | – | 84.9 ± 2.30 | 105 ± 4.81
CC(=O)NCCCC[C@H](NC(=O)C12CC3CC(CC(C3)C1)C2)C(=O)N[C@@H](CCC(=O)N[C@@H](CCC(=O)C=[N+]=[N-])C(=O)N[C@@H](CCC(=O)C=[N+]=[N-])C(=O)OC(C)C)C(=O)OC(C)C [Prodrug P19, Isopropyl (2S,5S,10S,13S)-13-((3S,5S,7S)-adamantane-1-carboxamido)-2,5-bis(4-diazo-3-oxobutyl)-10-(isopropoxycarbonyl)-4,7,12,19-tetraoxo-3,6,11,18-tetraazaicosanoate] | 0.502 ± 0.103 | 85.1 ± 0.64 | – | – | 74.1 ± 2.10 | 97.0 ± 4.11
